Experimental data reported in paper PMC10566475, “A cell-active cyclic peptide targeting the Nrf2/Keap1 protein–protein interaction” (Chemical Science, 2023).
Read-outs that look alike come from different tables or passages of the source. *1 amine or outer side, *2 acyl side, *3 side chain or, on linkers, in order; H or OH if unused. Where a SMILES comes first, the peptide text is derived from it. Bridges are numbered along the chain shown (N, C = ends). X1 = CN(CC(=O)O)c1nc(CC[*:1])cc(CC[*:2])n1; mXylylene = c1cc(C[*:1])cc(C[*:2])c1; CH2COCH2 = O=C(C[*:1])C[*:2]; CH2 = C([*:1])[*:2]

Experiments:
[1] = target: T1, interaction between the human Keap1 Kelch domain and an Nrf2-ETGE peptide (Homo sapiens, UniProt Q14145); assay: Keap1-Nrf2 TR-FRET (HTRF) assay; format: binding
T1 construct: 1nM purified human Keap1 Kelch domain (A321-T609) fused with N-terminal 6x His-tag; made in house
Excerpt: (§1) We based the design of our Nrf2-like cyclic peptides around the amino acid sequence of the ETGE motif (namely 12-mer ^73[…]^84L) and SAR studies reported in the literature.[9,10,12,14] The […] motif is known to adopt a beta-turn conformation upon binding to Keap1. Residues Q73-Q75 and L85 stabilise the bound conformation, L76-D77 and E79-G81 bind deep into the pocket with E79 and E82 forming electrostatic interactions with Keap1 and D77 and T80 stabilising the beta-turn via H-bonds with E78 not contributing to the binding. […] The ability of the cyclic peptides to bind to the Kelch domain of Keap1 was evaluated using surface plasma resonance (SPR), where the Kelch domain is immobilised onto a SPR sensor chip. Additionally, we assessed the ability of the peptides to inhibit the PPI between Nrf2 and the Kelch domain of Keap1 using a time-resolved FRET (TR-FRET) assay. Here, the IC50 for inhibition of the interaction between the human Keap1 Kelch domain and an Nrf2-ETGE peptide is measured.
(§2) Surface Plasmon Resonance (SPR)
(§3) Peptide affinities to the Kelch domain of Keap1 is determined in a direct binding assay using 8K surface plasmon resonance (SPR) biosensor (Cytiva) at 20°C. Immobilization of Keap1 Kelch domain on a CM5 sensor chip (Cytiva) is performed using standard amine coupling procedure. The surface is washed with 10mM NaOH, 1M NaCl before activated with EDC/NHS (Cytiva), followed by immobilization of human Keap1 Kelch domain (A321-T609) fused with N-terminal 6x His-tag7 (in 10 mM MES, pH=6.4).
(§4) Finally, the surface is deactivated by Ethanolamine. Immobilization levels are typically 5000-6000 RU.
(§5) The reference spot is treated as described, omitting the injection of Keap1. Compound concentration series are injected over the immobilized protein in increasing concentrations using single cycle kinetics (SCK) in running buffer (10 mM HEPES, 150 mM NaCl, 0.05% Tween20, 1 mM TCEP, pH 7.4). A 1:1 Langmuir interaction model is fitted to the experimental traces, enabling determination of kon, koff and […]
(§6) In the time-resolved Förster resonance energy transfer (TR-FRET) assay8 the IC50 of inhibitors which […]
(§7) are determined. The TR-FRET is measured between a Tb-labelled mAb (Anti—6-His, Tb cryptate Gold, CisBio 61H12TLB) that binds to Keap 1 Kelch domain and d2-labelled SA-biotin-peptide.
(§8) The assay was performed in 384-well white low-volume, medium binding plates (Greiner Bio One, Austria) in 20 mM HEPES pH 7.5, 150 mM NaCl, 2 mM GSH (Sigma-Aldrich, USA),1mM EDTA (Sigma-Aldrich, USA), and 0.01% Pluronic F127 (MilliporeSigma, USA), with a final reaction volume of 10 µL.
(§9) To determine the ability of synthesized peptide to inhibit PPI between the Keap1 Kelch domain and Nrf2, 1nM purified human Keap1 Kelch domain (A321-T609) fused with N-terminal 6x His-tag, 5 nM biotinylated Nrf2 peptide ([…], Genescript, USA), d2-labeled streptavidin (Revvity, USA), and […] anti-His monoclonal antibody tagged with terbium cryptate (Revvity, USA), were incubated in the presence of varying concentrations of investigated peptides for 3 h at room […]
(§10) 7 Li X, Zhang D, Hannink M, Beamer LJ. Crystallization and initial crystallographic analysis of the Kelch domain from human Keap1. Acta
(§11) 8 S. Lee, D. Ali Abed, L. J. Beamer, L. Hu, Development of a Homogeneous Time-Resolved Fluorescence Resonance Energy Transfer (TR-
Following the incubation, the PHERAstar FSX […] microplate reader was used to measure the acceptor and donor emissions at 665 nm and 620 nm, respectively. The acceptor/donor ratio was used to calculate relative energy transfer. Data was normalized by two-point normalization using neutral and inhibitor controls (neutral control: DMSO, inhibitor control: 0.1nM 2-[[4-[carboxymethyl-(4-methoxyphenyl)sulfonylamino]naphthale n-1-yl]-(4-methoxyphenyl)sulfonylamino]acetic acid; […]
parameter logistic fit and IC50 values were calculated using Genedata screener software (Genedata, […]

[2] = target: T2, human Keap1 Kelch domain (A321-T609) (Homo sapiens, UniProt Q14145); assay: Surface plasmon resonance (SPR) direct binding assay, immobilised Keap1 Kelch domain
T2 construct: human Keap1 Kelch domain (A321-T609) fused with N-terminal 6x His-tag; 6xHis (N); made in house
Excerpt: as §1, §2, §3, §4, §5, §6, §7, §8, §9, §10, §11

[3] = Table 1, geometric mean ± sd of at least 3 independent repeats unless stated, read-out: TR-FRET IC50
[4] = Table 1, geometric mean ± sd of at least 3 independent repeats unless stated, 20°C
[5] = Table 1, single cycle kinetics, 1:1 Langmuir model

T2 sequence (Q14145 321-609): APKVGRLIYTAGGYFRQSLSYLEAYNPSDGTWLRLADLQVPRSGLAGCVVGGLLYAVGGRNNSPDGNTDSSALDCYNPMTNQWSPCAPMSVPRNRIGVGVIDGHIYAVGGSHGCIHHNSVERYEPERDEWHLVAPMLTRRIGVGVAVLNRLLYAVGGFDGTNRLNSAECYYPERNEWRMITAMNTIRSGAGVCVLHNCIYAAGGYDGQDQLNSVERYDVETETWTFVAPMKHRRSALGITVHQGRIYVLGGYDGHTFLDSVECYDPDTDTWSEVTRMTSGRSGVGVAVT
T1 sequence (Q14145 321-609): as above

| Structure (SMILES) | IC50 [1, 3] | Kd [2, 4] | koff [2, 5] | kon [2, 5] | IC50 ([1]; Table 2, IC50, minimum of three repeats, read-out: TR-FRET) | koff ([2]; Table 2) | kon ([2]; Table 2) | Kd ([2]; Table 2, geometric mean ± sd of at least two independent repeats) |
| --- | --- | --- | --- | --- | --- | --- | --- | --- |
| CC(=O)N[C@H]1CSCC(=O)CSC[C@@H](C(=O)N[C@@H](CC(C)C)C(N)=O)NC(=O)[C@H](CCC(=O)O)NC(=O)CNC(=O)[C@H]([C@@H](C)O)NC(=O)[C@H](CCC(=O)O)NC(=O)[C@@H]2CCCN2C(=O)[C@H](CC(=O)O)NC(=O)[C@H](CC(C)C)NC(=O)[C@H](CCC(N)=O)NC1=O [Peptide P1-B] (Ac-CQLDPETGECL-NH2; linker 1-10 via CH2COCH2) | 4.4 ± 1.4 nM | 27 ± 1.3 nM | 0.0087 s⁻¹ | 410000 M⁻¹ s⁻¹ |  |  |  |  |
| CC(=O)N[C@@H](CC(C)C)C(=O)N[C@@H](CCC(N)=O)C(=O)N[C@H]1CSCC(=O)CSC[C@@H](C(=O)N[C@@H](CC(C)C)C(N)=O)NC(=O)[C@H](CCC(=O)O)NC(=O)CNC(=O)[C@H]([C@@H](C)O)NC(=O)[C@H](CCC(=O)O)NC(=O)[C@@H]2CCCN2C(=O)[C@H](CC(=O)O)NC1=O [Peptide P2-B] (Ac-LQCDPETGECL-NH2; linker 3-10 via CH2COCH2) | 9.8 ± 1.2 nM | 97 ± 1.4 nM | 0.028 s⁻¹ | 350000 M⁻¹ s⁻¹ |  |  |  |  |
| CC(=O)N[C@@H](CC(C)C)C(=O)N[C@@H](CCC(N)=O)C(=O)N[C@H]1CSCc2cccc(c2)CSC[C@@H](C(=O)N[C@@H](CC(C)C)C(N)=O)NC(=O)[C@H](CCC(=O)O)NC(=O)CNC(=O)[C@H]([C@@H](C)O)NC(=O)[C@H](CCC(=O)O)NC(=O)[C@@H]2CCCN2C(=O)[C@H](CC(=O)O)NC1=O [Peptide P2-C] (Ac-LQCDPETGECL-NH2; linker 3-10 via mXylylene) | 5.6 ± 1.1 nM | 36 ± 1.8 nM | 0.013 s⁻¹ | 500000 M⁻¹ s⁻¹ |  |  |  |  |
| CC(=O)N[C@@H](CC(C)C)C(=O)N[C@@H](CCC(N)=O)C(=O)N[C@H]1CSCSC[C@@H](C(=O)N[C@@H](CC(C)C)C(N)=O)NC(=O)[C@H](CCC(=O)O)NC(=O)CNC(=O)[C@H]([C@@H](C)O)NC(=O)[C@H](CCC(=O)O)NC(=O)[C@@H]2CCCN2C(=O)[C@H](CC(=O)O)NC1=O [Peptide P2-A] (Ac-LQCDPETGECL-NH2; linker 3-10 via CH2) | 8.3 ± 1.1 nM | 70 ± 1 nM | 0.015 s⁻¹ | 210000 M⁻¹ s⁻¹ |  |  |  |  |
| CC(=O)N[C@H]1CSCSC[C@@H](C(=O)N[C@@H](CC(C)C)C(N)=O)NC(=O)[C@H](CCC(=O)O)NC(=O)CNC(=O)[C@H]([C@@H](C)O)NC(=O)[C@H](CCC(=O)O)NC(=O)[C@@H]2CCCN2C(=O)[C@H](CC(=O)O)NC(=O)[C@H](CC(C)C)NC(=O)[C@H](CCC(N)=O)NC1=O [Peptide P1-A] (Ac-CQLDPETGECL-NH2; linker 1-10 via CH2) | 2.9 ± 1.7 nM | 19 ± 1.4 nM | 0.0073 s⁻¹ | 480000 M⁻¹ s⁻¹ |  |  |  |  |
| CC(=O)N[C@@H](CS)C(=O)N[C@@H](CC(=O)O)C(=O)N1CCC[C@H]1C(=O)N[C@@H](CCC(=O)O)C(=O)N[C@H](C(=O)NCC(=O)N[C@@H](CCC(=O)O)C(=O)N[C@@H](CS)C(=O)N[C@@H](CC(C)C)C(N)=O)[C@@H](C)O [Peptide P8] |  |  |  |  | 4.9 ± 1.2 nM | 0.0055 s⁻¹ | 95000 M⁻¹ s⁻¹ | 56 ± 1.3 nM |
| CC(=O)N[C@@H](CS)C(=O)N[C@@H](CC(C)C)C(=O)N[C@@H](CCC(N)=O)C(=O)N[C@@H](CC(C)C)C(=O)N[C@@H](CC(=O)O)C(=O)N1CCC[C@H]1C(=O)N[C@@H](CCC(=O)O)C(=O)N[C@H](C(=O)NCC(=O)N[C@@H](CCC(=O)O)C(=O)N[C@@H](CS)C(=O)N[C@@H](CC(C)C)C(N)=O)[C@@H](C)O [Peptide P3] (Ac-CLQLDPETGECL-NH2) | 5 ± 1.5 nM | 19 ± 1.8 nM | 0.0049 s⁻¹ | 180000 M⁻¹ s⁻¹ |  |  |  |  |
| CC(=O)N[C@H]1CSCCc2cc(nc(N(C)CC(=O)O)n2)CCSC[C@@H](C(=O)N[C@@H](CC(C)C)C(N)=O)NC(=O)[C@H](CCC(=O)O)NC(=O)CNC(=O)[C@H]([C@@H](C)O)NC(=O)[C@H](CCC(=O)O)NC(=O)[C@@H]2CCCN2C(=O)[C@H](CC(=O)O)NC(=O)[C@H](CC(C)C)NC(=O)[C@H](CCC(N)=O)NC(=O)[C@H](CC(C)C)NC1=O [Peptide P3-D] (Ac-CLQLDPETGECL-NH2; linker 1-11 via X1) | 2.4 ± 1.3 nM | 22 ± 1.3 nM | 0.0028 s⁻¹ | 140000 M⁻¹ s⁻¹ |  |  |  |  |
| CC(=O)N[C@H]1CSCCc2cc(nc(N(C)CC(=O)O)n2)CCSC[C@@H](C(=O)N[C@@H](CC(C)C)C(N)=O)NC(=O)[C@H](CCC(=O)O)NC(=O)CNC(=O)[C@H]([C@@H](C)O)NC(=O)[C@H](CCC(=O)O)NC(=O)[C@@H]2CCCN2C(=O)[C@H](CC(=O)O)NC(=O)[C@H](CC(C)C)NC(=O)[C@H](CCC(N)=O)NC1=O [Peptide P1-D] (Ac-CQLDPETGECL-NH2; linker 1-10 via X1) | 2.9 ± 1.4 nM | 25 ± 1.3 nM | 0.0047 s⁻¹ | 200000 M⁻¹ s⁻¹ |  |  |  |  |
| CC(=O)N[C@@H](CC(C)C)C(=O)N[C@@H](CCC(N)=O)C(=O)N[C@@H](CS)C(=O)N[C@@H](CC(=O)O)C(=O)N1CCC[C@H]1C(=O)N[C@@H](CCC(=O)O)C(=O)N[C@H](C(=O)NCC(=O)N[C@@H](CCC(=O)O)C(=O)N[C@@H](CS)C(=O)N[C@@H](CC(C)C)C(N)=O)[C@@H](C)O [Peptide P2] (Ac-LQCDPETGECL-NH2) |  | 75 nM |  |  |  |  |  |  |
| CC(=O)N[C@H]1Cn2cc(nn2)-c2cc(C(=O)O)cc(c2)-c2cn(nn2)C[C@@H](C(=O)N[C@@H](CC(C)C)C(N)=O)NC(=O)[C@H](CCC(=O)O)NC(=O)CNC(=O)[C@H]([C@@H](C)O)NC(=O)[C@H](CCC(=O)O)NC(=O)[C@@H]2CCCN2C(=O)[C@H](CC(=O)O)NC(=O)[C@H](CC(C)C)NC(=O)[C@H](CCC(N)=O)NC(=O)[C@H](CC(C)C)NC1=O [Peptide P3Aza-E] | 4 ± 1.4 nM | 34 ± 1.3 nM | 0.0054 s⁻¹ | 170000 M⁻¹ s⁻¹ |  |  |  |  |
| CC(=O)N[C@H]1CSCc2cccc(c2)CSC[C@@H](C(=O)N[C@@H](CC(C)C)C(N)=O)NC(=O)[C@H](CCC(=O)O)NC(=O)CNC(=O)[C@H]([C@@H](C)O)NC(=O)[C@H](CCC(=O)O)NC(=O)[C@@H]2CCCN2C(=O)[C@H](CC(=O)O)NC(=O)[C@H](CC(C)C)NC(=O)[C@H](CCC(N)=O)NC1=O [Peptide P1-C] (Ac-CQLDPETGECL-NH2; linker 1-10 via mXylylene) | 2.1 nM | 17 ± 1.2 nM | 0.0078 s⁻¹ | 470000 M⁻¹ s⁻¹ |  |  |  |  |
| CC(=O)N[C@@H](CS)C(=O)N[C@@H](CCC(N)=O)C(=O)N[C@@H](CC(C)C)C(=O)N[C@@H](CC(=O)O)C(=O)N1CCC[C@H]1C(=O)N[C@@H](CCC(=O)O)C(=O)N[C@H](C(=O)NCC(=O)N[C@@H](CCC(=O)O)C(=O)N[C@@H](CS)C(=O)N[C@@H](CC(C)C)C(N)=O)[C@@H](C)O [Peptide P1] (Ac-CQLDPETGECL-NH2) | 4.9 ± 1.1 nM | 20 ± 1.2 nM | 0.0014 s⁻¹ | 86000 M⁻¹ s⁻¹ |  |  |  |  |
| CC(=O)N[C@@H](CC(C)C)C(=O)N[C@@H](CCC(N)=O)C(=O)N[C@H]1CSCCc2cc(nc(N(C)CC(=O)O)n2)CCSC[C@@H](C(=O)N[C@@H](CC(C)C)C(N)=O)NC(=O)[C@H](CCC(=O)O)NC(=O)CNC(=O)[C@H]([C@@H](C)O)NC(=O)[C@H](CCC(=O)O)NC(=O)[C@@H]2CCCN2C(=O)[C@H](CC(=O)O)NC1=O [Peptide P2-D] (Ac-LQCDPETGECL-NH2; linker 3-10 via X1) | 4.8 ± 1.5 nM | 54 ± 1.2 nM | 0.0083 s⁻¹ | 160000 M⁻¹ s⁻¹ |  |  |  |  |
